This passage reports MIC results from paper PMC10099666, “Structure Elucidation, Total Synthesis, Antibacterial In Vivo Efficacy and Biosynthesis Proposal of Myxobacterial Corramycin” (Angewandte Chemie (International Ed. in English), 2022).

Values after ≈ are worked out from the molar mass of the structure shown. *1 amine or outer side, *2 acyl side, *3 side chain or, on linkers, in order; H or OH if unused. Where a SMILES comes first, the peptide text is derived from it. [ ]: non-standard residue; d: D form. The star is where a group is joined. Ava(2S,3R-(OH)2,4S-OMe) = CO[C@@H](CN[*:1])[C@H](O)[C@H](O)C(=O)[*:2]; dHis(βS-OH,π-Me) = Cn1cncc1[C@@H](O)[C@@H](N)C(=O)O; Butanoyl(2R-OH,3S-OH) = C[C@H](O)[C@@H](O)C(=O)*; Val(3-OH) = CC(C)(O)[C@H](N)C(=O)O; NMeF = CN[C@@H](Cc1ccccc1)C(=O)O

What all share (assay type): cell-based
Assay [1] deals with Enterobacter cloacae 17059482. To be noted: strain 17059482; CAMHB, CLSI/EUCAST broth microdilution, 5x10^5 CFU mL-1, 20-22 h, duplicates. As to the method: (§1) 5. Determination of the minimal inhibitory concentration (MIC) in vitro The MIC of Corramycin was evaluated following the Clinical & Laboratory Standard Institute (CLSI; https://clsi.org) and EUCAST (https://eucast.org) guidelines. First, inoculi of the bacterial test strains were prepared by culturing isolated colonies in cation-adjusted Müller Hinton broth (CAMHB; 2 g L-1 beef infusion solids, 1.5 g L-1 starch, 17.5 g L-1 casein hydrolysates, final pH 7.4) at 37 °C and 180 rpm for 18 h. Next, Corramycin, which was dissolved in DMSO, was transferred into the first row of a 96-well plate to reach an end concentration of 64 µg mL-1 (in 100 µL total volume). A 1:1 serial dilution in cation-adjusted Mueller Hinton broth (CAMHB) of the test compound was done from the top row to the bottom row of the 96-well plate to reach an end concentration of 0.125 µg mL-1 in the bottom row. Afterwards, the respective test strains were transferred into the wells, reaching a total volume of 100 µL and 5x10^5 colony-forming units (CFU) mL-1. After a 20 to 22 h of incubation, the optical density was evaluated on a microplate reader and the MIC endpoint was determined as the lowest concentration of antibiotic at which there was no visible growth observed. Each MIC experiment was performed in duplicates. Table S 4 depicts the MIC values of Corramycin against all bacterial strains tested in this study.
(§2) Table S 4. MIC values of Corramycin against all bacterial strains tested in this study. […]
On the technique in general: Broth dilution looks for growth in wells or tubes with falling amounts of substance.

The subject of assay [2] is Enterobacter cloacae DSM46348. Particulars: strain DSM46348; CAMHB, CLSI/EUCAST broth microdilution, 5x10^5 CFU mL-1, 20-22 h, duplicates. As to the method: as §1, §2
Assay [3] relates to Enterococcus faecium A6349. Particulars: strain A6349; CAMHB, CLSI/EUCAST broth microdilution, 5x10^5 CFU mL-1, 20-22 h, duplicates. On the procedure:
as §1, §2

Assay [4] concerns Enterococcus faecium DSM17050. To be noted: strain DSM17050; CAMHB, CLSI/EUCAST broth microdilution, 5x10^5 CFU mL-1, 20-22 h, duplicates. On the procedure: as §1, §2
Assay [5] deals with Escherichia coli 1705863. To be noted: strain 1705863; CAMHB, CLSI/EUCAST broth microdilution, 5x10^5 CFU mL-1, 20-22 h, duplicates. On the procedure:
as §1, §2

The test system of assay [6] is Escherichia coli ATCC35218. Particulars: strain ATCC35218; CAMHB, CLSI/EUCAST broth microdilution, 5x10^5 CFU mL-1, 20-22 h, duplicates. As to the method: as §1, §2
In assay [7] the test system is Escherichia coli DSM46345. To be noted: strain DSM46345; CAMHB, CLSI/EUCAST broth microdilution, 5x10^5 CFU mL-1, 20-22 h, duplicates. On the procedure: as §1, §2
Assay [8] concerns Escherichia coli MG1655 WT. To be noted: strain MG1655 WT; CAMHB, CLSI/EUCAST broth microdilution, 5x10^5 CFU mL-1, 20-22 h, duplicates. As to the method: as §1, §2
Assay [9] concerns Escherichia coli NCTC10418. To be noted: strain NCTC10418; CAMHB, CLSI/EUCAST broth microdilution, 5x10^5 CFU mL-1, 20-22 h, duplicates. On the procedure: as §1, §2
Assay [10] concerns Escherichia coli NCTC13441. To be noted: strain NCTC13441; CAMHB, CLSI/EUCAST broth microdilution, 5x10^5 CFU mL-1, 20-22 h, duplicates. On the procedure: as §1, §2
Assay [11] has as its system Klebsiella pneumoniae 1705949. To be noted: strain 1705949; CAMHB, CLSI/EUCAST broth microdilution, 5x10^5 CFU mL-1, 20-22 h, duplicates. On the procedure:
as §1, §2

For assay [12], the system named is Klebsiella pneumoniae 1705966. To be noted: strain 1705966; CAMHB, CLSI/EUCAST broth microdilution, 5x10^5 CFU mL-1, 20-22 h, duplicates. On the procedure:
as §1, with “study. […]” for “study.”

Assay [13] concerns Salmonella typhimurium ATCC13311. To be noted: strain ATCC13311; CAMHB, CLSI/EUCAST broth microdilution, 5x10^5 CFU mL-1, 20-22 h, duplicates. On the procedure: as §1, with “study. […]” for “study.”
For assay [14], the system named is Enterococcus faecalis 1069 VanB. As to the method: as §1, with “study. […]” for “study.”

Consider `CO[C@@H](CNC(=O)[C@H](NC(=O)[C@H](O)[C@H](C)O)[C@H](O)c1cncn1C)[C@H](O)[C@H](O)C(=O)N(C)[C@@H](Cc1ccccc1)C(=O)NCC(=O)N[C@H](C(=O)N[C@@H](CO)C(=O)N[C@H](C(=O)N[C@@H](CC(C)C)C(=O)N[C@@H](CO)C(=O)O)C(C)(C)O)C(C)(C)O` [Corramycin] ({Butanoyl(2R-OH,3S-OH)}-[dHis(βS-OH,π-Me)][Ava(2S,3R-(OH)2,4S-OMe)][NMeF]G[Val(3-OH)]S[Val(3-OH)]LS-OH), for which the minimal inhibitory concentration (MIC) in assay [1] is more than 64 µg/mL; in assay [2], 32 µg/mL (≈ 27 µM); in [3] it was more than 64 µg/mL; in assay [4] it was 64 µg/mL (≈ 54 µM); in assay [5], 8 µg/mL (≈ 6.76 µM); in [6], 1 to 4 µg/mL. For the same compound, the minimal inhibitory concentration (MIC) in [7] is 32 µg/mL (≈ 27 µM); in assay [8], 8 to 16 µg/mL; in assay [9], 8 µg/mL (≈ 6.76 µM); in assay [10], 4 µg/mL (≈ 3.38 µM); in assay [11] it was 64 µg/mL (≈ 54 µM); in assay [12], more than 64 µg/mL. Also, the minimal inhibitory concentration (MIC) in assay [13] was found to be 4 µg/mL (≈ 3.38 µM); in assay [14], 16 µg/mL (≈ 13.5 µM).

As a reminder, the MIC is the lowest concentration found to suppress growth. A higher MIC goes with weaker potency.
